Results from patent US20260224536A1, “ARYL HETEROCYCLIC KV1.3 INHIBITOR, PREPARATION METHOD THEREFOR, AND USE THEREOF” (SHANGHAI SHENSHI WISE TECHNOLOGY CO., LTD., priority 2022, published 2026).
pIC50: −log10 of the molar value.

The compounds below were run against Kv1.3 potassium channel (Homo sapiens, UniProt P22001) (assay: Whole-cell patch-clamp assay for inhibitory activity against Kv1.3 (peak current)). Conditions: HEK293 cells stably expressing Kv1.3, patch-clamp.
Type: cell-based
Excerpt: The voltage stimulation protocol for recording whole-cell Kv1.X potassium currents via patch-clamp was as follows. After formation of a whole-cell seal, the cell membrane voltage was clamped at −80 mV, and then stepped to +40 mV for 500 ms. […] The test data were acquired by EPC-10 amplifier (HEKA) and stored in the PatchMaster (HEKA) software. Recording electrodes were drawn from capillary glass tubes using a microelectrode puller. Under an inverted microscope, the recording electrode was brought into contact with the cell surface by manipulating a microelectrode manipulator. Negative-pressure suction was applied to form a GΩ seal. After formation of the […], a rapid capacitance compensation was given. The application of negative pressure was continued to rupture the cell membrane, forming a whole-cell recording mode. Then, a slow capacitance compensation was given, and the membrane capacitance and series resistance were recorded. No current leakage compensation was provided. Once the whole-cell recorded Kv1.X current stabilized, drug administration was started. Each drug concentration was allowed to act for 5 min (or until the current reached a steady state) before the next concentration was tested. Multiple concentrations were tested for each test compound. The cover glass plated with the cells was placed in a recording bath of the inverted microscope. The test compound and the compound-free extracellular fluid were allowed to sequentially flow through the recording bath from low concentrations to high concentrations using a gravity perfusion method, thus acting on the cells, and liquid exchange was performed using a vacuum pump during recording. For each cell, the current detected in the compound-free extracellular liquid was used as its own control group. The test was independently repeated three times using at least three cells per concentration. All electrophysiological experiments were performed at room temperature. […] First, the peak current after the action of each drug concentration and the peak current of the blank control were standardized and then the inhibition rate corresponding to each drug concentration was calculated Subsequently, the mean, standard deviation (SD), and standard error (SE) were calculated for the inhibition rate corresponding to each concentration. Using the above equation, the IC50 value for each compound was calculated, and the dose-dependent effect was subjected to non-linear fitting, where IC50 is the half maximal inhibitory concentration. The IC50 calculation and the curve fitting were performed using the GraphPad Prism software.

Chain of Kv1.3 potassium channel (P22001 whole entry): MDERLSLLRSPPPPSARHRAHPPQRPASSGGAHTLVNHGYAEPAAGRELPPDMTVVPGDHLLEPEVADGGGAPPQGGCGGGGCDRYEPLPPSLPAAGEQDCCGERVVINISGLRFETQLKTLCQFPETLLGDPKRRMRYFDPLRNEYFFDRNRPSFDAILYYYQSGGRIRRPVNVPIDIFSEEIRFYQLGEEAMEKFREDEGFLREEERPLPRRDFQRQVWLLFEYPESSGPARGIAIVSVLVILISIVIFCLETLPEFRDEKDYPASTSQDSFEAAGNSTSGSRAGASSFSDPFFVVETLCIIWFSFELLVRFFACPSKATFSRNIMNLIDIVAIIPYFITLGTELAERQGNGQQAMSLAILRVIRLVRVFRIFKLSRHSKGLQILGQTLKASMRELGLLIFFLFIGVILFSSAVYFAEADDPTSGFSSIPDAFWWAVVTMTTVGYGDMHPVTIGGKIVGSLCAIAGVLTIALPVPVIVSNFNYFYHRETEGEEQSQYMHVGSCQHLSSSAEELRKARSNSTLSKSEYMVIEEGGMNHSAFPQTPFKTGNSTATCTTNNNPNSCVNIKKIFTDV

Going from `CC(=O)N1CCC(c2nnc3n2C[C@H](c2c(O)ccc(Cl)c2Cl)C3)CC1` [Example 37, (S)-1-(4-(6-(2,3-Dichloro-6-hydroxyphenyl)-6,7-dihydro-5H-pyrrolo[2,1-c][1,2,4]triazol-3-yl)piperidin-1-yl)ethan-1-one] to `CC(C)N1CCC(c2nnc3n2C[C@H](c2c(O)ccc(Cl)c2Cl)C3)CC1` [Example 36, (S)-3,4-Dichloro-2-(3-(1-isopropylpiperidin-4-yl)-6,7-dihydro-5H-pyrrolo[2,1-c][1,2,4]triazol-6-yl)phenol], the pIC50 rises from 7.90 to 8.17 (0.27 log units). The second is the more potent here.

First: Oc1ccc(Br)c(Br)c1C1Cc2nnc([C@@H]3CCOC3)n2C1 (stereo partly drawn) [Example 119, 3,4-Dibromo-2-(3-((S)-tetrahydrofuran-3-yl)-6,7-dihydro-5H-pyrrolo[2,1-c][1,2,4]triazol-6-yl)phenol]
Second: Oc1ccc(Cl)c(Cl)c1[C@@H]1Cc2nnc([C@H]3CCOC3)n2C1 [Example 55, 3,4-dichloro-2-((S)-3-((R)-tetrahydrofuran-3-yl)-6,7-dihydro-5H-pyrrolo[2,1-c][1,2,4]triazol-6-yl)phenol]
The pIC50 of the first is 0.26 log units higher: 8.18 for the first, 7.92 for the second. The first is the more potent here.

Going from `COc1cccc(-c2nnc3n2C[C@@H](c2c(O)ccc(Cl)c2Cl)C3)c1` [Example 77, (R)-3,4-dichloro-2-(3-(3-methoxyphenyl)-6,7-dihydro-5H-pyrrolo[2,1-c][1,2,4]triazol-6-yl)phenol] to `COc1cccc(-c2nnc3n2C[C@H](c2c(O)ccc(Cl)c2Cl)C3)c1` [Example 76, (S)-3,4-Dichloro-2-(3-(3-methoxyphenyl)-6,7-dihydro-5H-pyrrolo[2,1-c][1,2,4]triazol-6-yl)phenol], the pIC50 rises from 7.34 to 7.55 (0.21 log units).

`Oc1ccc(Cl)c(Cl)c1C1Cc2nnc(-c3ccc4[nH]ncc4c3)n2C1` (stereo not drawn) [Example 7, 2-(3-(1H-Indazol-5-yl)-6,7-dihydro-5H-pyrrolo[2,1-c][1,2,4]triazol-6-yl)-3,4-dichlorophenol] and `N#Cc1cccc(-c2nnc3n2CC(c2c(O)ccc(Cl)c2Cl)C3)c1` (stereo not drawn) [Example 9, 3-(6-(2,3-dichloro-6-hydroxyphenyl)-6,7-dihydro-5H-pyrrolo[2,1-c][1,2,4]triazol-3-yl)benzonitrile] are within 0.2 log units of each other in pIC50: 7.92 for the first, 7.77 for the second.

Compared with `Oc1ccc(Cl)c(Cl)c1[C@@H]1Cc2nnc(C3CCNCC3)n2C1` [Example 35, (S)-3,4-Dichloro-2-(3-(piperidin-4-yl)-6,7-dihydro-5H-pyrrolo[2,1-c][1,2,4]triazol-6-yl)phenol], `Oc1ccc(Cl)c(Cl)c1[C@@H]1Cc2nnc(C3CCCNC3)n2C1` (single isomer, unassigned) [Example 58] is 0.58 log units lower in pIC50: 8.50 for the first, 7.92 for the second. The first is the more potent here.

`O=c1n(C2CCOCC2)nc2n1C[C@H](c1c(O)ccc(Cl)c1Cl)C2` [Example 108, (S)-6-(2,3-Dichloro-6-hydroxyphenyl)-2-(tetrahydro-2H-pyran-4-yl)-2,5,6,7-tetrahydro-3H-pyrrolo[2,1-c][1,2,4]triazol-3-one] and `O=c1n([C@H]2CCOC2)nc2n1C[C@H](c1c(O)ccc(Cl)c1Cl)C2` [Example 109, (S)-6-(2,3-Dichloro-6-hydroxyphenyl)-2-((S)-tetrahydrofuran-3-yl)-2,5,6,7-tetrahydro-3H-pyrrolo[2,1-c][1,2,4]triazol-3-one] are within 0.2 log units of each other in pIC50: 7.56 for the first, 7.50 for the second.

`Oc1ccc(Cl)c(Cl)c1C1Cc2nnc(CC(F)(F)F)n2C1` (stereo not drawn) [Example 15, 3,4-Dichloro-2-(3-(2,2,2-trifluoroethyl)-6,7-dihydro-5H-pyrrolo[2,1-c][1,2,4]triazol-6-yl)phenol] and `Oc1ccc(Cl)c(Cl)c1[C@@H]1Cc2nnc(C(F)(F)F)n2C1` [Example 86, (S)-3,4-Dichloro-2-(3-(trifluoromethyl)-6,7-dihydro-5H-pyrrolo[2,1-c][1,2,4]triazol-6-yl)phenol] are within 0.2 log units of each other in pIC50: 7.57 for the first, 7.60 for the second.

Compared with `Oc1ccc(Cl)c(Cl)c1[C@@H]1Cc2nnc([C@@]34COCC3C4)n2C1` (stereo partly drawn) [Example 72, 2-((6S)-3-((1S)-3-Oxabicyclo[3.1.0]hexan-1-yl)-6,7-dihydro-5H-pyrrolo[2,1-c][1,2,4]triazol-6-yl)-3,4-dichlorophenol], `Oc1ccc(Cl)c(Cl)c1[C@@H]1Cc2nnc(C3CNC3)n2C1` [Example 45, (S)-2-(3-(Azetidin-3-yl)-6,7-dihydro-5H-pyrrolo[2,1-c][1,2,4]triazol-6-yl)-3,4-dichlorophenol] is 1.41 log units higher in pIC50: 7.41 for the first, 8.82 for the second.

Compared with `Oc1ccc(Cl)c(Cl)c1[C@@H]1Cc2nnc([C@H]3C[C@@H]4CC[C@H]3O4)n2C1` [Example 62, 2-((S)-3-((1R,2R,4S)-7-Oxabicyclo[2.2.1]heptan-2-yl)-6,7-dihydro-5H-pyrrolo[2,1-c][1,2,4]triazol-6-yl)-3,4-dichlorophenol], `CN1CCC(c2nnc3n2C[C@H](c2c(O)ccc(Cl)c2Cl)C3)C1` (stereo partly drawn) [Example 49, 3,4-Dichloro-2-((6S)-3-(1-methylpyrrolidin-3-yl)-6,7-dihydro-5H-pyrrolo[2,1-c][1,2,4]triazol-6-yl)phenol] is 0.65 log units higher in pIC50: 7.79 for the first, 8.44 for the second. The second is the more potent here.

Going from `CC(C)N1CCN(C(=O)c2nnc3n2CC(c2c(O)ccc(Cl)c2Cl)C3)CC1` (stereo not drawn) [Example 14, (6-(2,3-Dichloro-6-hydroxyphenyl)-6,7-dihydro-5H-pyrrolo[2,1-c][1,2,4]triazol-3-yl)(4-isopropylpiperazin-1-yl)methanone] to `CC(C)N1CCC(Cc2nnc3n2CC(c2c(O)ccc(Cl)c2Cl)C3)CC1` (stereo not drawn) [Example 18, 3,4-Dichloro-2-(3-((1-isopropylpiperidin-4-yl)methyl)-6,7-dihydro-5H-pyrrolo[2,1-c][1,2,4]triazol-6-yl)phenol], the pIC50 rises from 7.71 to 8.24 (0.53 log units). The second is the more potent here.

Compared with `O=C1CC(c2nnc3n2C[C@H](c2c(O)ccc(Cl)c2Cl)C3)CN1` (single isomer, unassigned) [Example 53], `CC(C)(C#N)c1nnc2n1CC(c1c(O)ccc(Cl)c1Cl)C2` (stereo not drawn) [Example 4, 2-(6-(2,3-Dichloro-6-hydroxyphenyl)-6,7-dihydro-5H-pyrrolo[2,1-c][1,2,4]triazol-3-yl)-2-methylpropanenitrile] is 0.48 log units lower in pIC50: 7.82 for the first, 7.34 for the second.

Going from `OCCn1cc(-c2nnc3n2C[C@H](c2c(O)ccc(Cl)c2Cl)C3)cn1` [Example 44, (S)-3,4-Dichloro-2-(3-(1-(2-hydroxyethyl)-1H-pyrazol-4-yl)-6,7-dihydro-5H-pyrrolo[2,1-c][1,2,4]triazol-6-yl)phenol] to `CCc1cnc2n1C[C@@H](c1c(O)ccc(Cl)c1Cl)C2` [Example 93, (R)-3,4-dichloro-2-(3-ethyl-6,7-dihydro-5H-pyrrolo[1,2-a]imidazol-6-yl)phenol], the pIC50 rises from 8.09 to 8.51 (0.42 log units). The second is the more potent here.

`CC(C)N1CCC(n2nc3n(c2=O)C[C@H](c2c(O)ccc(Cl)c2Cl)C3)CC1` [Example 103, (S)-6-(2,3-dichloro-6-hydroxyphenyl)-2-(1-isopropylpiperidin-4-yl)-2,5,6,7-tetrahydro-3H-pyrrolo[2,1-c][1,2,4]triazol-3-one] and `CC(C)N1CCC(n2nc3n(c2=O)C[C@@H](c2c(O)ccc(Cl)c2Cl)C3)CC1` [Example 104, (R)-6-(2,3-dichloro-6-hydroxyphenyl)-2-(1-isopropylpiperidin-4-yl)-2,5,6,7-tetrahydro-3H-pyrrolo[2,1-c][1,2,4]triazol-3-one] are within 0.2 log units of each other in pIC50: 8.11 for the first, 8.16 for the second.

`Oc1ccc(Cl)c(Cl)c1[C@H]1Cc2ncc(C3CCCC3)n2C1` [Example 91, (R)-3,4-dichloro-2-(3-cyclopentyl-6,7-dihydro-5H-pyrrolo[1,2-a]imidazol-6-yl)phenol] and `Oc1ccc(Cl)c(Cl)c1[C@@H]1Cc2ncc(C3CCCC3)n2C1` [Example 90, (S)-3,4-Dichloro-2-(3-cyclopentyl-6,7-dihydro-5H-pyrrolo[1,2-a]imidazol-6-yl)phenol] are within 0.2 log units of each other in pIC50: 8.31 for the first, 8.15 for the second.

Going from `O=c1n(CC(F)F)nc2n1C[C@H](c1c(O)ccc(Cl)c1Cl)C2` [Example 107, (S)-6-(2,3-Dichloro-6-hydroxyphenyl)-2-(2,2-difluoroethyl)-2,5,6,7-tetrahydro-3H-pyrrolo[2,1-c][1,2,4]triazol-3-one] to `CC(C)N1CCC(c2cnc3n2CC(c2c(O)ccc(Cl)c2Cl)C3)CC1` (single isomer, unassigned) [Example 94], the pIC50 rises from 7.51 to 8.22 (0.71 log units).

`CCc1nn(C)c2c1C[C@H](c1c(O)ccc(Cl)c1Cl)C2` [Example 115, (S)-3,4-Dichloro-2-(3-ethyl-1-methyl-1,4,5,6-tetrahydrocyclopenta[c]pyrazol-5-yl)phenol] and `CCc1nn(C)c2c1C[C@@H](c1c(O)ccc(Cl)c1Cl)C2` [Example 116, (R)-3,4-dichloro-2-(3-ethyl-1-methyl-1,4,5,6-tetrahydrocyclopenta[c]pyrazol-5-yl)phenol] are within 0.2 log units of each other in pIC50: 7.23 for the first, 7.36 for the second.

Compound `COc1ccc(-c2cnc3n2CC(c2c(O)ccc(Cl)c2Cl)C3)cc1` (stereo not drawn) [Example 96, 3,4-Dichloro-2-(3-(4-methoxyphenyl)-6,7-dihydro-5H-pyrrolo[1,2-a]imidazol-6-yl)phenol] has a pIC50 of 7.29.
